Results published in patent US12319676B2, “Substituted amide compounds useful as farnesoid X receptor modulators” (BRISTOL-MYERS SQUIBB COMPANY, priority 2019, dated 2025).

Target: T1, human FXR (Homo sapiens, UniProt Q96RI1)
T1 construct: expressed in transfected cells; host or cells: HEK293 cells stably carrying a 5xGal4 response element-luciferase reporter, transiently transfected with pcDNA3.1-Gal4-FXR
T1 sequence (Q96RI1 262-486 limits assumed): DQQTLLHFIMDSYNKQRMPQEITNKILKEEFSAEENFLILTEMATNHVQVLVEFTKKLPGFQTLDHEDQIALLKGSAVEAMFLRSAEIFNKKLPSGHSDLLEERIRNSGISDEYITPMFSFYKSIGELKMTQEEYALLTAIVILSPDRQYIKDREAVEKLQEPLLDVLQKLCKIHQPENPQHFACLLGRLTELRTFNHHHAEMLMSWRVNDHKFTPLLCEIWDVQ
Assay: transient human FXR/Gal4-luciferase reporter assay
Type: cell-based
Settings: Gal4-hFXR fusion construct, luciferase reporter in HEK293 cells; overnight incubation; response as percentage of 8 μM GW-4064 control
Outline: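 HEK293 cells stably carrying a 5×Gal4-response-element firefly luciferase reporter were transiently transfected with a Gal4 DBD-human FXR LBD fusion, then treated overnight with compounds at 37 °C. Steady-Glo luminescence, minus DMSO background, was expressed as percent of the response to 8 μM GW-4064.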

SMILES | EC50 [µM]
O=C(N(CC12CCC(c3ccc(C(F)(F)F)cn3)(CC1)CC2)c1cccc(Nc2ncc(OC(F)F)cn2)c1)C12CC(F)(C1)C2 [Example 106, N-(3-((5-(difluoromethoxy)pyrimidin-2-yl)amino)phenyl)-3-fluoro-N-((4-(5-(trifluoromethyl)pyridin-2-yl)bicyclo[.2.2.2]octan-1-yl)methyl)bicyclo[1.1.1]pentane-1-carboxamide] | 0.132
O=C(N(CC12CCC(c3ccc(C(F)(F)F)cn3)(CC1)CC2)c1cccc(Nc2ccc(OC(F)F)cc2)c1)C12CC(F)(C1)C2 [Example 107, N-(3-((4-(difluoromethoxy)phenyl)amino)phenyl)-3-fluoro-N-((4-(5-(trifluoromethyl)pyridin-2-yl)bicyclo[2.2.2]octan-1-yl)methyl)bicyclo[1.1.1]pentane-1-carboxamide] | 0.484
O=C(N(CC12CCC(c3ccc(C(F)(F)F)cn3)(CC1)CC2)c1cccc(Nc2ccc(OC(F)F)cn2)c1)C12CC(F)(C1)C2 [Example 108, N-(3-((5-(difluoromethoxy)pyridin-2-yl)amino)phenyl)-3-fluoro-N-((4-(5-(trifluoromethyl)pyridin-2-yl)bicyclo[2.2.2]octan-1-yl)methyl)bicyclo[1.1.1]pentane-1-carboxamide] | 0.629
O=C(N(CC12CCC(c3ccc(C(F)(F)F)cn3)(CC1)CC2)c1cccc(Nc2ccc(C3CC3)cn2)c1)C12CC(F)(C1)C2 [Example 109, N-(3-((5-cyclopropylpyridin-2-yl)amino)phenyl)-3-fluoro-N-((4-(5-(trifluoromethyl)pyridin-2-yl)bicyclo[2..2.2]octan-1-yl)methyl)bicyclo[1.1.1]pentane-1-carboxamide] | 0.292
CC(C)(C)c1nc(C23CCC(CN(C(=O)C45CC(F)(C4)C5)c4cccc(O)c4)(CC2)CC3)no1 [Example 110, N-((4-(5-(tert-butyl)-1,2,4-oxadiazol-3-yl)bicyclo[2.2.2]octan-1-yl)methyl)-3-fluoro-N-(3-hydroxyphenyl)bicyclo[1.1.1]pentane-1-carboxamide] | 0.065
CC(C)(C)c1nc(C23CCC(CN(C(=O)C45CC(F)(C4)C5)c4cccc(OCC#N)c4)(CC2)CC3)no1 [Example 111, N-((4-(5-(tert-butyl)-1,2,4-oxadiazol-3-yl)bicyclo[2.2.2]octan-1-yl)methyl)-N-(3-(cyanomethoxy)phenyl)-3-fluorobicyclo[1.1.1]pentane-1-carboxamide] | 0.618
CC(C)(O)COc1cccc(N(CC23CCC(c4noc(C(C)(C)C)n4)(CC2)CC3)C(=O)C23CC(F)(C2)C3)c1 [Example 112, N-((4-(5-(tert-butyl)-1,2,4-oxadiazol-3-yl)bicyclo[2.2.2]octan-1-yl)methyl)-3-fluoro-N-(3-(2-hydroxy-2-methylpropoxy)phenyl)bicyclo[1.1.1]pentane-1-carboxamide] | 0.063
CC(C)(Oc1cccc(N(CC23CCC(c4noc(C(C)(C)C)n4)(CC2)CC3)C(=O)C23CC(F)(C2)C3)c1)C(=O)O [Example 113, 2-(3-(N-((4-(5-(tert-butyl)-1,2,4-oxadiazol-3-yl)bicyclo[2.2.2]octan-1-yl)methyl)-3-fluorobicyclo[1.1.1]pentane-1-carboxamido)phenoxy)-2-methylpropanoic acid] | 2
N#Cc1cccc(N(CC23CCC(c4noc(C(F)(F)F)n4)(CC2)CC3)C(=O)C23CC(F)(C2)C3)c1 [Example 114, N-(3-cyanophenyl)-3-fluoro-N-((4-(5-(trifluoromethyl)-1,2,4-oxadiazol-3-yl)bicyclo[2.2.2]octan-1-yl)methyl)bicyclo[1.1.1]pentane-1-carboxamide] | 0.08
N#Cc1cccc(N(CC23CCC(c4noc(C(F)(F)F)n4)(CC2)CC3)C(=O)[C@H]2C[C@](O)(C(F)(F)F)C2)c1 [Example 115, (1S,3S)-N-(3-cyanophenyl)-3-hydroxy-3-(trifluoromethyl)-N-((4-(5-(trifluoromethyl)-1,2,4-oxadiazol-3-yl)bicyclo[2.2.2]octan-1-yl)methyl)cyclobutane-1-carboxamide] | 0.436
N#Cc1cccc(N(CC23CCC(c4noc(C(F)(F)F)n4)(CC2)CC3)C(=O)C2CCOCC2)c1 [Example 116, N-(3-cyanophenyl)-N-((4-(5-(trifluoromethyl)-1,2,4-oxadiazol-3-yl)bicyclo[2.2.2]octan-1-yl)methyl)tetrahydro-2H-pyran-4-carboxamide] | 0.518
C[C@]1(O)C[C@@H](C(=O)N(CC23CCC(c4noc(C(F)(F)F)n4)(CC2)CC3)c2cccc(C#N)c2)C1 [Example 117, (1S,3S)-N-(3-cyanophenyl)-3-hydroxy-3-methyl-N-((4-(5-(trifluoromethyl)-1,2,4-oxadiazol-3-yl)bicyclo[2.2.2]octan-1-yl)methyl)cyclobutane-1-carboxamide] | 1.35
CC(C)(C)c1nc(C23CCC(CN(C(=O)C45CC(F)(C4)C5)c4cccc(Oc5ncc(OC(F)F)cn5)c4)(CC2)CC3)no1 [Example 118, N-((4-(5-(tert-butyl)-1,2,4-oxadiazol-3-yl)bicyclo[2.2.2]octan-1-yl)methyl)-N-(3-((5-(difluoromethoxy)pyrimidin-2-yl)oxy)phenyl)-3-fluorobicyclo[1.1.1]pentane-1-carboxamide] | 0.361
CC(C)(C)c1nc(C23CCC(CN(C(=O)C45CC(F)(C4)C5)c4cccc(Oc5ccc(OC(F)F)cn5)c4)(CC2)CC3)no1 [Example 119, N-((4-(5-(tert-butyl)-1,2,4-oxadiazol-3-yl)bicyclo[2.2.2]octan-1-yl)methyl)-N-(3-((5-(difluoromethoxy)pyridin-2-yl)oxy)phenyl)-3-fluorobicyclo[1.1.1]pentane-1-carboxamide] | 0.536
CC(F)(F)c1nc(C23CCC(CN(C(=O)C45CC(F)(C4)C5)c4cccc(C(=O)O)c4)(CC2)CC3)no1 [Example 120, 3-(N-((4-(5-(1,1-difluoroethyl)-1,2,4-oxadiazol-3-yl)bicyclo[2.2.2]octan-1-yl)methyl)-3-fluorobicyclo[1.1.1]pentane-1-carboxamido)benzoic acid] | 4
CC(C)(C)c1noc(C23CCC(CN(C(=O)C45CC(F)(C4)C5)c4ccc(F)c(C(N)=O)c4)(CC2)CC3)n1 [Example 121, N-((4-(3-(tert-butyl)-1,2,4-oxadiazol-5-yl)bicyclo[2.2.2]octan-1-yl)methyl)-N-(3-carbamoyl-4-fluorophenyl)-3-fluorobicyclo[1.1.1]pentane-1-carboxamide] | 0.412
CCNC(=O)c1cc(N(CC23CCC(c4nc(C(C)(C)C)no4)(CC2)CC3)C(=O)C23CC(F)(C2)C3)ccc1F [Example 122, N-((4-(3-(tert-butyl)-1,2,4-oxadiazol-5-yl)bicyclo[2.2.2]octan-1-yl)methyl)-N-(3-(ethylcarbamoyl)-4-fluorophenyl)-3-fluorobicyclo[1.1.1]pentane-1-carboxamide] | 0.123
CC(C)Oc1cccc(N(CC23CCC(c4nc(C(C)(C)C)no4)(CC2)CC3)C(=O)[C@H]2C[C@](O)(C(F)(F)F)C2)c1 [Example 123, (1S,3S)—N-((4-(3-(tert-butyl)-1,2,4-oxadiazol-5-yl)bicyclo[2.2.2]octan-1-yl)methyl)-3-hydroxy-N-(3-isopropoxyphenyl)-3-(trifluoromethyl)cyclobutane-1-carboxamide] | 2
CC(C)Oc1cccc(N(CC23CCC(c4nc(C(C)(C)C)no4)(CC2)CC3)C(=O)C23CC(F)(C2)C3)c1 [Example 124, N-((4-(3-(tert-butyl)-1,2,4-oxadiazol-5-yl)bicyclo[2.2.2]octan-1-yl)methyl)-3-fluoro-N-(3-isopropoxyphenyl)bicyclo[1.1.1]pentane-1-carboxamide] | 2
CC(C)Oc1cccc(N(CC23CCC(c4noc(C(C)(F)F)n4)(CC2)CC3)C(=O)[C@H]2C[C@@](C)(O)C2)c1 [Example 125, (1S,3S)—N-((4-(5-(1,1-difluoroethyl)-1,2,4-oxadiazol-3-yl)bicyclo[2.2.2]octan-1-yl)methyl)-3-hydroxy-N-(3-isopropoxyphenyl)-3-methylcyclobutane-1-carboxamide] | 1.53
CC(C)Oc1cccc(N(CC23CCC(c4noc(C(C)(F)F)n4)(CC2)CC3)C(=O)[C@H]2C[C@](O)(C(F)(F)F)C2)c1 [Example 126, (1S,3S)-N-((4-(5-(1,1-difluoroethyl)-1,2,4-oxadiazol-3-yl)bicyclo[2..2.2]octan-1-yl)methyl)-3-hydroxy-N-(3-isopropoxyphenyl)-3-(trifluoromethyl)cyclobutane-1-carboxamide] | 0.61
CC(C)Oc1cccc(N(CC23CCC(c4noc(C(C)(F)F)n4)(CC2)CC3)C(=O)C23CC(F)(C2)C3)c1 [Example 127, N-((4-(5-(1,1-difluoroethyl)-1,2,4-oxadiazol-3-yl)bicyclo[2.2.2]octan-1-yl)methyl)-3-fluoro-N-(3-isopropoxyphenyl)bicyclo[1.1.1]pentane-1-carboxamide] | 0.156
CC(C)(C)c1noc(C23CCC(CN(C(=O)C45CC(F)(C4)C5)c4ccc(F)c(C(C)(C)O)c4)(CC2)CC3)n1 [Example 128, N-((4-(3-(tert-butyl)-1,2,4-oxadiazol-5-yl)bicyclo[2.2.2]octan-1-yl)methyl)-3-fluoro-N-(4-fluoro-3-(2-hydroxypropan-2-yl)phenyl)bicyclo[1.1.1]pentane-1-carboxamide] | 4
COc1cccc(N(CC23CCC(c4noc(C(C)(F)F)n4)(CC2)CC3)C(=O)C23CC(F)(C2)C3)c1 [Example 129, N-((4-(5-(1,1-difluoroethyl)-1,2,4-oxadiazol-3-yl)bicyclo[2.2.2]octan-1-yl)methyl)-3-fluoro-N-(3-methoxyphenyl)bicyclo[1.1.1]pentane-1-carboxamide] | 0.073
